Values after ≈ are worked out from the molar mass of the structure shown.
details: buffer; pH 7.4; 200.0 µM

| Structure (SMILES) | solubility kinetic [µg/mL] |
| --- | --- |
| Cc1ccc(C2Nc3cccc4cccc(c34)N2)cc1 | 4.7 (≈ 18.1 µM) |
| COC(=O)/C(C#N)=C/c1c(Oc2cc(C)cc(C)c2)nc2ccccn2c1=O | 1.7 (≈ 4.53 µM) |
| Nc1ccc(NC(=O)CCN2CCOCC2)cc1 | 34.8 (≈ 140 µM) |
| COc1ccc(C(=O)NC(=S)N2CCN(c3ccccc3O)CC2)cc1 | 6.1 (≈ 16.4 µM) |
| CCCCOc1ccc(CON(C(C)=O)C(C)=O)cc1Cl | 2.6 (≈ 8.29 µM) |
| CC(=O)NC12CC3CC(C1)CC(C(=O)OCC(=O)c1cc(C)n(C)c1C)(C3)C2 | 49.5 (≈ 128 µM) |
| O=C(O)c1cc(Cl)c(Cl)cc1C(=O)NCc1ccco1 | > 47.1 |
| CNC(=S)NNC(=O)c1cccc(N(C)C)c1 | > 37.9 |
| Cc1ccc(NC(=S)N2CCC(NC(=O)c3ccccc3)CC2)cc1 | 8.8 (≈ 24.9 µM) |
| O=C(/C=C/c1cccc(Cl)c1)NCc1ccccc1 | 3.4 (≈ 12.5 µM) |
| COc1ccc(C(=O)O)cc1S(N)(=O)=O | > 34.7 |
| COc1ccc(C(CC(=O)NCc2ccccc2)C(C)C)cc1 (stereo unspecified) | 10.1 (≈ 32.4 µM) |
| c1cnc(-c2noc(CN3CCN(C4CCCC4)CC3)n2)cn1 | > 47.2 |
| CC(=O)c1nc2ccccc2n1Cc1ccccc1 | 14.5 (≈ 57.9 µM) |
| Cn1nc(-c2ccc(Cl)cc2)cc1NC(=O)CC(C)(C)CC(=O)O | > 52.5 |
| CC(=O)c1cccc(NC(=O)CCC(=O)Oc2ccc(C)cc2)c1 | > 48.8 |
| C/C(=C\C(=O)c1ncc(C(F)(F)F)cc1Cl)N(C)C | 41 (≈ 140 µM) |
| CC(C)N(Cc1cc2ccccc2[nH]c1=O)C(=O)c1ccco1 | > 46.6 |
| NC(=O)C1CCN(S(=O)(=O)Cc2ccccc2Cl)CC1 | > 47.5 |
| Cc1ccc2[nH]cc(CCNC(=O)/C=C/c3ccco3)c2c1 | 36.9 (≈ 125 µM) |

| Structure (SMILES) | solubility kinetic [µg/mL] |
| --- | --- |
| CCN(Cc1ccccc1)C(=O)CSc1n[nH]c(N)n1 | > 43.7 |
| O=C(CCNC(=O)c1ccccc1)Nc1ccc(Cl)c(S(=O)(=O)N2CCCCC2)c1 | 29.8 (≈ 66.2 µM) |
| O=C(O)CCC(=O)N(Cc1ccco1)C1CC(=O)N(c2ccccc2)C1=O (stereo unspecified) | > 55.6 |
| Brc1ccc(-c2noc(-c3ccccc3)n2)o1 | < 0.3 |
| COc1ccc(N(CC(=O)NC2CCS(=O)(=O)C2)S(=O)(=O)c2cc(C)ccc2C)cc1 (stereo unspecified) | 66.3 (≈ 142 µM) |
| Nc1ccc(NC(=O)NC2CCCCC2)cc1[N+](=O)[O-] | 1.6 (≈ 5.75 µM) |
| Cc1cccc(NC(=O)/C(C#N)=C/c2ccccc2O)n1 | 20.9 (≈ 74.8 µM) |
| CCn1c(SCc2ccccc2)nc2ccccc2c1=O | 1.3 (≈ 4.39 µM) |
| CCCc1cnc(N2CCN(C(=O)c3ccccc3)CC2)nc1 | > 46.6 |
| COC(=O)c1[nH]c2cc(C)ccc2c1NC(=O)CN1CCOCC1 | > 49.7 |
| Br.COC(=O)c1ccc(CN2CCSC2=N)cc1 | 49.6 |
| N#Cc1ccc(-c2cccnc2)nc1SCC(N)=O | 38.2 (≈ 141 µM) |
| COc1ccc(N2C(=O)C(F)(F)C2c2cccc(F)c2)cc1 (stereo unspecified) | < 0.7 |
| Cc1ccccc1CNC(=O)C(=O)Nc1nccs1 | 1.2 (≈ 4.36 µM) |
| CCOC(=O)c1ccccc1NC(=O)CSc1nncn1C | > 48.1 |
| Cc1ccc2nc3cc([N+](=O)[O-])cc([N+](=O)[O-])c3cc2c1 | 0.8 (≈ 2.82 µM) |
| COc1ccc(S(=O)(=O)Nc2cc(C)on2)cc1NC(C)=O | > 48.8 |
| CC(C)CC1CCCCC1OC(=O)CN1CCCCC1 (stereo unspecified) | 3.7 (≈ 13.1 µM) |
| CC(C)Sc1nc2ncnc(N)c2[nH]1 | > 31.4 |
| COC(=O)c1ccc(C2NC(=O)CCC2[N+](=O)[O-])cc1 (stereo unspecified) | > 41.7 |

More lines, now with the values ahead:

| solubility kinetic [µg/mL] | Structure (SMILES) |
| --- | --- |
| 1.2 (≈ 9.59 µM) | NCCS(=O)(=O)O |
| > 32.9 | Cc1cc(=O)[nH]c(Nc2cccc(F)c2)n1 |
| 41.7 (≈ 126 µM) | NC(=S)C(c1ccccc1)c1ncc(C(F)(F)F)cc1Cl (stereo unspecified) |
| 18.7 (≈ 61.2 µM) | COc1ccccc1C(=O)NC(C)c1cccc2ccccc12 (stereo unspecified) |
| < 0.3 | CCCn1c(=O)c(C(=O)NCc2ccco2)c(O)c2ccccc21 |
| 5.5 | Cc1cc(Nc2cccc([N+](=O)[O-])c2)c2cccc(C)c2n1.Cl |
| < 0.7 | O=C(Nc1ccc(Cl)cc1Cl)c1ccc(Br)o1 |
| 24.3 (≈ 92.6 µM) | COc1ccccc1NC(=O)CN1CCCCCC1 |
| 19.4 (≈ 64 µM) | O=c1[nH]c(/C=C/c2ccc3c(c2)OCO3)c([N+](=O)[O-])c(=O)[nH]1 |
| 33.1 (≈ 121 µM) | O=C(CSc1ncccn1)NC(=O)c1ccccc1 |
| 6.6 (≈ 25.9 µM) | O=C(Nc1nc2ccccc2[nH]1)c1cccc(F)c1 |
| 10 (≈ 19.4 µM) | O=C(COC(=O)c1cc(S(=O)(=O)Nc2ccccc2Cl)ccc1O)Nc1ccc(F)c(F)c1F |
| > 40.7 | COc1ccc(OCCC(=O)Nc2ccccc2)cc1 |
| 1.8 (≈ 5.39 µM) | O=S(=O)(Cc1cc(-c2ccccc2Cl)no1)c1ccccc1 |
| < 0.2 | COc1cc(NC(=S)Nc2cccnc2)cc(OC)c1 |
| > 60.1 | COc1cccc(-c2nc(-c3ccccc3)c(-c3ccccc3)[nH]2)c1OCC(=O)O |
| > 37 | O=C(NCc1cccc(Cl)c1)c1ccncc1 |
| 2.5 (≈ 7.67 µM) | COc1nc(NCCO)nc(Nc2cc(Cl)ccc2OC)n1 |
| 17.3 (≈ 66.5 µM) | ClCC1CN(Cc2ccccc2Cl)CCO1 (stereo unspecified) |
| 1.8 (≈ 5.38 µM) | CCc1cc2c(SCc3ccc(C(=O)OC)o3)ncnc2s1 |
| 18.8 (≈ 63.9 µM) | Cc1ccc(NC(=O)CN2CCc3ccccc3C2)cc1C |
| 38.3 (≈ 127 µM) | O=C1SCCC1NS(=O)(=O)c1ccc([N+](=O)[O-])cc1 (stereo unspecified) |
| 34.9 (≈ 82.5 µM) | CN(c1ccc(F)cc1)S(=O)(=O)c1ccc(Cl)c(C(=O)NCc2ccco2)c1 |

| solubility kinetic [µg/mL] | Structure (SMILES) |
| --- | --- |
| 17.5 (≈ 54.4 µM) | Cc1cc(C)cc(CC2CC(=O)N(c3cc(C)ccc3C)C2=O)c1 (stereo unspecified) |
| 42 (≈ 128 µM) | Cc1noc(C)c1C(=O)N1CCC(CO)(Cc2ccccc2)CC1 |
| 33.4 (≈ 131 µM) | O=C(c1ccccc1F)N1CCCc2ccccc21 |
| 39.9 (≈ 142 µM) | CC(=O)NC1c2ccccc2C(=O)N1Cc1ccccc1 (stereo unspecified) |
| 42.3 (≈ 126 µM) | Cc1ccccc1NC(=O)c1ccc(OCc2c(C)noc2C)cc1 |
| > 61.3 | COC(=O)c1ccc(CN=C(NS(=O)(=O)c2ccccc2)c2ccccc2)cc1 |
| 10.2 (≈ 30.2 µM) | Cc1csc(NC(=O)CCCNC(=O)c2ccc(Cl)cc2)n1 |
| > 40.2 | Cc1ccc(S(=O)(=O)N2CCNC(=O)C2)c(C)c1 |
| > 56.8 | Cc1ccc(S(=O)(=O)N2CCCCC2)cc1C(=O)N1C(C)CCCC1C (stereo unspecified) |
| > 50 | Nc1c(Cl)cc(Cl)cc1C(=O)OCC(=O)N1CCOCC1 |
| 6.3 (≈ 14.3 µM) | O=C1CN(C(=O)CN2C(=O)NC(c3ccccc3)(c3ccccc3)C2=O)c2ccccc2N1 |
| > 40.3 | COCC(=O)N1CCN(c2cccc(Cl)c2)CC1 |
| 44.3 | CCOC(=O)C1CCC(CNCc2ccccc2C)CC1.Cl (stereo unspecified) |
| 32.5 (≈ 126 µM) | O=C(CNC(=O)c1ccccc1F)c1ccccc1 |
| 44.9 (≈ 142 µM) | O=C(NC(=S)NC1CCS(=O)(=O)C1)c1ccccc1F (stereo unspecified) |
| 42.3 | Cl.OC(COCCC12CC3CC(CC(C3)C1)C2)CN1CCCC1 (stereo unspecified) |
| > 45.1 | NC1=NC(=Nc2ccc(S(N)(=O)=O)cc2)c2ccccc21 |
| > 51.8 | O=C(Nc1cccnc1)c1cccc(S(=O)(=O)N2CCCCC2)c1 |
| 18.5 (≈ 55.7 µM) | O=C(c1c(F)cccc1F)N1CCN=C1SCc1ccccc1 |
| 5.9 (≈ 20.6 µM) | Cc1ccccc1Cn1c(=O)n(C)c(=O)c2sccc21 |
| 3.8 | CC1CCCN(c2ccc(F)cc2N)C1.Cl (stereo unspecified) |
| 36.6 (≈ 107 µM) | COc1ccc(N2CCN(C(=O)c3cccnc3)CC2)c([N+](=O)[O-])c1 |
| 25 (≈ 97.9 µM) | COc1cccc(Cn2c(=O)oc3ccccc32)c1 |

Source: PubChem BioAssay AID1996
